# Measurements taken from patent US12344611B2, “Bridged cycloformylpyridine derivatives and uses thereof” (BroadenBio Co., Ltd., priority 2019, dated 2025).
# Legend:
# [1] = test system: HuH-7 hepatoma cells; experiment: In vitro cell proliferation assay (CellTiter-Glo, CTG), HuH-7; type: cell-based; details: HuH-7 cells
# Protocol: (§1) In Vitro Cell Proliferation Assay of FGFR4 (CellTiter-Glo Luminescent Cell Viability Assay, CTG Assay)
# (§2) Hep 3B hepatoma cells were purchased from Cell Resource Center of Peking Union College, and HuH-7 hepatoma cells were purchased from Shanghai Biological Technology Co., Ltd. enzyme research. The cells were prepared at a concentration of 3×10^4/mL, which was then added with 100 μL to each well of a 96-well transparent flat-bottom black-walled plate to make 3000 cells per well. Incubate overnight at 37° C. in 5% CO2 incubator. Dilute a compound and add it to the wells having the cells, then add cell culture medium to 200 μL per well. Put in CO2 incubator for incubation. After 96 hours, 100 μL of culture medium was removed from each well, 100 μL of CTG was added, and the 96-well plate was placed on a shaker for 10 minutes, and placed in the shade at room temperature for 45 minutes. Data was read out by SoftMax Pro i3X Microplate Reader of MD, analyzed by the software GraphPad Prism 5.0, and S-shaped dose-response curve was drawn, then the EC50 values were calculated.
# [2] = target: FGFR4 (Homo sapiens, UniProt P22455); experiment: In vitro biochemical kinase analysis of FGFR4 (HTRF KinEASE-TK); details: HTRF kinase assay
# FGFR4, sequence (P22455 22-802): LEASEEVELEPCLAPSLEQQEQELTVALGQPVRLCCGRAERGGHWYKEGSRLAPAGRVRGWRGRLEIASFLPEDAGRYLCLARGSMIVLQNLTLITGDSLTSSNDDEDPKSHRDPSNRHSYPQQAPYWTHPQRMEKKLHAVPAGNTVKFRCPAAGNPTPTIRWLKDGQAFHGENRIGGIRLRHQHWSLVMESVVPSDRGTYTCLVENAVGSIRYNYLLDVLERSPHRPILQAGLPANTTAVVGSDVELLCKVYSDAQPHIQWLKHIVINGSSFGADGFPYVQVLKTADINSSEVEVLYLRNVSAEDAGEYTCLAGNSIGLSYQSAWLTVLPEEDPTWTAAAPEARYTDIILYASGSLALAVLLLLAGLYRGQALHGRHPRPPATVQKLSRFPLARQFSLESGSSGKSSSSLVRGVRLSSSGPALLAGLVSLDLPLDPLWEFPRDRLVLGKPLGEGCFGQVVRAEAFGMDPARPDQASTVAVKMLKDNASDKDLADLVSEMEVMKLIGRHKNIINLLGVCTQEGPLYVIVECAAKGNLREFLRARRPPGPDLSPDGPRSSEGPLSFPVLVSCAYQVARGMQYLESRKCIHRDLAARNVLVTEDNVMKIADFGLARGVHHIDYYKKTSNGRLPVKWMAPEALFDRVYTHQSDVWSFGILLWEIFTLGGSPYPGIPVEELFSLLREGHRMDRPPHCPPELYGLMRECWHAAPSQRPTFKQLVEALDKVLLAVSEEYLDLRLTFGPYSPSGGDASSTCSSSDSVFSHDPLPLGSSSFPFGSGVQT
# Protocol: In Vitro Biochemical Kinase Analysis of FGFR4
# FGFR4 protein kinase detection kit was purchased from Cisbio (HTRF KinEASE-TK kit). Prepare 1× kinase reaction buffer. Transfer 10 nL of a diluted compound to each well of a reaction plate (784075, Greiner) with an Echo 550, and seal the plate with sealing film. The reaction plate was centrifuged at 1000 g for 1 minute. Prepare 2×FGFR4 using 1× kinase reaction buffer, add 5 μL of kinase to each well of the reaction plate, seal the plate, centrifuge at 1000 g for 30 seconds, and incubate it at room temperature for 10 minutes. Prepare a mixture of 2×TK-substrate-biotin and ATP using 1× kinase reaction buffer, add 5 μL of TK-substrate-biotin/ATP mixture to the reaction plate, seal the plate with sealing film, centrifuge at 1000 g for 30 seconds, and react at room temperature for 40 minutes. Prepare 2×Sa-XL 665 and TK-antibody-Cryptate mixture using HTRF detection buffer, add 10 μL Sa-XL 665 and TK-antibody-Cryptate mixture to each well, centrifuge at 1000 g for 30 seconds, and react at room temperature for 1 hour. Envision 2104 read fluorescence signals at 615 nm (Cryptate) and at 665 nm (XL665). IC50 of the compound was calculated using the GraphPad nonlinear fitting formula.
# [3] = test system: Hep 3B hepatoma cells; experiment: In vitro cell proliferation assay (CellTiter-Glo, CTG), Hep 3B; type: cell-based, human; details: Hep 3B cells
# Protocol: as §1, §2
SMILES,"EC50 ([1]; Homo sapiens, Huh-7, 96 h)",IC50 [2],"EC50 ([3]; Homo sapiens, Hep3B, 96 h)",EC50 ([1]; 96 hours),EC50 ([3]; 96 hours)
"COCCNc1cc(NC(=O)N2c3nc(C=O)ccc3C3(OCCN(C)C)CC2C3)ncc1C#N [Compound 29, N-(5-cyano-4-((2-methoxyethyl)amino)pyridin-2-yl)-4-(2-(dimethylamino)ethoxy)-7-formyl-3,4-dihydro-2,4-methylene-1,8-naphthyridine-1(2H)-carboxamide]",0.2 nM,1.1 nM,1.2 nM,,
CCc1cc2c(nc1C=O)N(C(=O)Nc1cc(NCCOC)c(C#N)cn1)C1CC2(F)C1 [Compound 21],28.4 nM,2.1 nM,15.8 nM,,
"COCCOCCNc1cc(NC(=O)N2c3nc(C=O)ccc3C3(OC)CC2C3)ncc1C#N [Compound 22, N-(5-cyano-4-((2-(2-methoxyethoxy)ethyl)amino)pyridin-2-yl)-7-formyl-4-methoxy-3,4-dihydro-2,4-methylene-1,8-naphthyridine-1(2H)-carboxamide]",125 nM,4.7 nM,125 nM,,
"COCCNc1cc(NC(=O)N2c3nc(C=O)ccc3C3(O)CC2C3)ncc1C#N [Compound 2, N-(5-cyano-4-((2-methoxyethyl)amino)pyridin-2-yl)-7-formyl-4-hydroxy-3,4-dihydro-2,4-methylene-1,8-naphthyridine-1(2H)-carboxamide]",52 nM,2.2 nM,8.1 nM,,
COCCNc1cc(NC(=O)N2c3nc(C=O)c(CN4CCN(C)CC4)cc3C3(F)CC2C3)ncc1C#N [Compound 7],> 1000 nM,5.1 nM,669 nM,,
"COC1CCCC1Nc1cc(NC(=O)N2c3nc(C=O)c(CN4CCN(C)CC4=O)cc3C3(F)CC2C3)ncc1C#N (single isomer, unassigned) [Compound 12-P1, N-(5-cyano-4-(((cis)-2-methoxycyclopentyl)amino)pyridin-2-yl)-4-fluoro-7-formyl-64(4-methyl-2-oxopiperazin-1-yl)methyl)-3,4-dihydro-2,4-methylene-1,8-naphthyridine-1(2H)-carboxamide]",,2.1 nM,,0.9 nM,8.6 nM
"COCCNc1cc(NC(=O)N2c3nc(C=O)c(CN4CCN(C)CC4=O)cc3C3CC2C3)ncc1C#N [Compound 18, N-(5-cyano-4-((2-methoxyethyl)amino)pyridin-2-yl)-7-formyl-6-((4-methyl-2-oxopiperazin-1-yl)methyl)-3,4-dihydro-2,4-methylene-1,8-naphthyridine-1(2H)-carboxamide]",15.1 nM,2.5 nM,5.6 nM,,
"COCCNc1cc(NC(=O)N2c3nc(C=O)c(CN4CCOCC4=O)cc3C3CC2C3)ncc1C#N [Compound 27, N-(5-cyano-4-((2-methoxyethyl)amino)pyridin-2-yl)-7-formyl-6-((3-oxomorpholinyl)methyl)-3,4-dihydro-2,4-methylene-1,8-naphthyridine-1(2H)-carboxamide]",9.7 nM,1.4 nM,6.7 nM,,
COCCNc1cc(NC(=O)N2c3nc(C=O)ccc3C3(NC(=O)C4CCN(C)C4)CC2C3)ncc1C#N (stereo not drawn) [Compound 40],39.6 nM,3.4 nM,24.9 nM,,
COCCNc1cc(NC(=O)N2c3nc(C=O)ccc3C3(OC)CC2C3)ncc1C#N [Compound 3],42 nM,1.6 nM,13.4 nM,,
COCCOc1cc(NC(=O)N2c3nc(C=O)c(CN4CCN(C)CC4=O)cc3C3(F)CC2C3)ncc1C#N [Compound 9],71 nM,4.9 nM,58 nM,,
COCCNc1cc(NC(=O)N2c3nc(C=O)c(CN4CCOCC4=O)cc3C3(F)CC2C3)ncc1C#N [Compound 13],74 nM,6.9 nM,12.6 nM,,
COCCNc1cc(NC(=O)N2c3nc(C=O)ccc3C3(OCCN4CCOCC4)CC2C3)ncc1C#N [Compound 39],10 nM,1.6 nM,7.8 nM,,
"COC1CCCC1Nc1cc(NC(=O)N2c3nc(C=O)c(CN4CCN(C)CC4=O)cc3C3(F)CC2C3)ncc1C#N (single isomer, unassigned) [Compound 11-P2, N-(5-cyano-4-(((trans)-2-methoxycyclopentyl)amino)pyridin-2-yl)-4-fluoro-7-formyl-64(4-methyl-2-oxopiperazin-1-yl)methyl)-3,4-dihydro-2,4-methylene-1,8-naphthyridine-1(2H)-carboxamide]",,9.8 nM,,73.1 nM,32.1 nM
"CCS(=O)(=O)NC12CC(C1)N(C(=O)Nc1cc(NCCOC)c(C#N)cn1)c1nc(C=O)ccc12 [Compound 38, N-(5-cyano-4-((2-methoxyethyl)amino)pyridin-2-yl)-4-ethanesulfonamido-7-formyl-3,4-dihydro-2,4-methylene-1,8-naphthyridine-1(2H)-carboxamide]",19.2 nM,2.3 nM,9.5 nM,,

# More lines, in order of falling IC50 [2], values ahead:
"EC50 ([1]; Homo sapiens, Huh-7, 96 h)",IC50 [2],"EC50 ([3]; Homo sapiens, Hep3B, 96 h)",EC50 ([1]; 96 hours),EC50 ([3]; 96 hours),SMILES
> 1000 nM,23.2 nM,638 nM,,,"CN1CCN(Cc2cc3c(nc2C=O)N(C(=O)Nc2ccc(C(F)(F)F)cn2)C2CC3(F)C2)C(=O)C1 [Compound 16, N-(5-(trifluoromethyl)pyridin-2-yl)-4-fluoro-7-formyl-6-((4-methyl-2-oxopiperazin-1-yl)methyl)-3,4-dihydro-2,4-methylene-1,8-naphthyridine-1(2H)-carboxamide]"
20 nM,3.8 nM,10 nM,,,"CN1CCN(Cc2cc3c(nc2C=O)N(C(=O)Nc2cc(NC4CCOC4)c(C#N)cn2)C2CC3(F)C2)C(=O)C1 (stereo not drawn) [Compound 10, N-(5-cyano-4-((tetrahydrofuran-3-yl)amino)pyridin-2-yl)-4-fluoro-7-formyl-6-((4-methyl-2-oxopiperazin-1-yl)methyl)-3,4-dihydro-2,4-methylene-1,8-naphthyridine-1(2H)-carboxamide]"
28 nM,3.3 nM,7.8 nM,,,COCCNc1cc(NC(=O)N2c3nc(C=O)c(CN4CCCCOC4=O)cc3C3(F)CC2C3)ncc1C#N [Compound 14]
5.9 nM,2.1 nM,3.3 nM,,,"COC[C@@H](C)Nc1cc(NC(=O)N2c3nc(C=O)c(CN4CCN(C)CC4=O)cc3C3(F)CC2C3)ncc1C#N [Compound 6, (R)—N-(5-cyano-4-((1-methoxyprop-2-yl)amino)pyridin-2-yl)-4-fluoro-7-formyl-6-((4-methyl-2-oxopiperazin-1-yl)methyl)-3,4-dihydro-2,4-methylene-1,8-naphthyridine-1(2H)-carboxamide]"
1.7 nM,0.6 nM,1.4 nM,,,COC[C@@H](C)Nc1cc(NC(=O)N2c3nc(C=O)c(CN4CCN(C)CC4=O)cc3C3CC2C3)ncc1C#N [Compound 24]
1 nM,0.3 nM,1.3 nM,,,"CO[C@@H]1CCC[C@H]1Nc1cc(NC(=O)N2c3nc(C=O)c(CN4CCN(C)CC4=O)cc3C3CC2C3)ncc1C#N (relative stereo) [Compound 26, N-(5-cyano-4-(((trans)-2-methoxycyclopentyl)amino)pyridin-2-yl)-7-formyl-6-((4-methyl-2-oxopiperazin-1-yl)methyl)-3,4-dihydro-2,4-methylene-1,8-naphthyridine-1(2H)-carboxamide]"
